One test relates to SRS-A. Put plainly: TEST D: Inhibition of SRS-A Production (ovalbumin challenge). The format is in vivo, guinea-pig. As to conditions: 10 mg/kg i.v. 1 minute prior to challenge. As to the method:
TEST D: Inhibition of SRS-A Production Guinea-pigs are passively sensitized 24 hrs. prior to testing by i.v. administration of 1 ml homologous anti-ovalbumin antiserum. Prior to antigen challenge test animals are pre-treated with 0.32 mg/kg propanol i.v. (inhibition of endogenous catecholamines), 3.2 mg/kg, i.v. mepyramine (H1 receptor antagonism) and 3.2 mg/kg, i.v. indomethacin (inhibition of cyclo-oxygenase). Allergen challenge is effected by administration of 32 μg/kg, ovalbumin i.v. and the resultant constrictor response on airways resistance used as a functional read out of SRS-A activity. Separate test groups receive 10 mg/kg, i.v. FPL 55712 (an LTD4 receptor antagonist) 1 minute prior to challenge or test substance at varying dosage, i.v. by infusion, beginning 16 minutes prior to challenge.

The subject of test [1] is SRS-A induced bronchoconstriction. Put plainly: TEST H experiment 1: Suppression of SRS-A Induced Bronchoconstriction (i.v. infusion). Conditions: FPL 55712 10 mg/kg i.v. The test is classed as in vivo, guinea pig (Dunkin-Hartley). As to the method:
TEST H: Suppression of SRS-A Induced Bronchoconstriction Guinea pigs (Dunkin-Hartley, male, 400-600 g) are anesthethized with phenobarbital (100 mg/kg i.p.) and pentobarbital (30 mg/kg i.p.) and paralyzed with gallamine (100 mg/kg i.m.) Animals are ventilated via a tracheal cannula (8 ml/kg, 1 Hz) with a mixture of air and oxygen (45:55 v/v). Blood pressure and heart rate are recorded at the carotid artery. Ventilation is monitored by a Fleisch flow transducer in line with the inspiratory circuit. When making measurements of flow, coincident pressure changes in the thorax are monitored directly via an intrathoracic trochar, permitting display of differential pressure relative to the trachea. From this information in relation to flow and differential pressure, resistance [R1 ] and compliance [Cdyn ] are calculated using a digital respiratory analyzer for each respiratory cycle. Test animals are passively sensitized 24 hrs. prior to testing by administration of homologous anti-ovalbumin antiserum (1 ml i.v.). […] Allergen challenge is achieved by administration of ovalbumin (OA) and the resultant bronchoconstrictor response is used as a functional read-out of SRS-A activity. […]

Turning to `CCCc1c(OCC(O)COc2ccc3c(=O)cc(C(=O)O)oc3c2CCC)ccc(C(C)=O)c1O` (centres unmarked) [FPL 55712], the “effect on bronchoconstriction (TEST D)” value in the test with SRS-A is “abolition of bronchoconstriction”. The “bronchoconstrictor effect of OA (experiment 1)” value in test [1] is “abolished”.

(Values after patent US5747506A, “Isoquinoline compounds, compositions containing them and their pharmaceutical uses” (Novartis AG, priority 1993, dated 1998).)
